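Where inhibition never reached the appropriate level, the endpoint shown equals the highest concentration tested. Otherwise, values were interpolated linearly from a five-concentration, 48-hour dose response in 96-well plates. Definition used: TGI = concentration required for complete inhibition of growth.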
Key:
Assay in all cases: NCI-60 cell line screen, 48 h
HOP-92 NSCLC = test system: HOP-92 NSCLC
UO-31 renal = test system: UO-31 renal
NCI-H23 lung = test system: NCI-H23 lung
SR leukemia = test system: SR leukemia
HT29 colon = test system: HT29 colon
U251 CNS = test system: U251 CNS
SF-295 CNS = test system: SF-295 CNS
MOLT-4 leukemia = test system: MOLT-4 leukemia
PC-3 prostate = test system: PC-3 prostate
RXF 393 renal = test system: RXF 393 renal
CCRF-CEM leukemia = test system: CCRF-CEM leukemia
SF-539 CNS = test system: SF-539 CNS
IGROV1 ovarian = test system: IGROV1 ovarian
TK-10 renal = test system: TK-10 renal
SW-620 colon = test system: SW-620 colon
SK-MEL-2 melanoma = test system: SK-MEL-2 melanoma
SF-268 CNS = test system: SF-268 CNS
UACC-62 melanoma = test system: UACC-62 melanoma
NCI-H460 lung = test system: NCI-H460 lung
OVCAR-3 ovarian = test system: OVCAR-3 ovarian
A498 renal = test system: A498 renal
786-0 renal = test system: 786-0 renal
MALME-3M melanoma = test system: MALME-3M melanoma
NCI/ADR-RES ovarian = test system: NCI/ADR-RES ovarian
SNB-19 CNS = test system: SNB-19 CNS
SK-MEL-5 melanoma = test system: SK-MEL-5 melanoma
ACHN renal = test system: ACHN renal
DU-145 prostate = test system: DU-145 prostate
HCT-15 colon = test system: HCT-15 colon
COLO 205 colon = test system: COLO 205 colon
HOP-62 NSCLC = test system: HOP-62 NSCLC
NCI-H226 lung = test system: NCI-H226 lung
RPMI-8226 leukemia = test system: RPMI-8226 leukemia
NCI-H522 lung = test system: NCI-H522 lung
HS 578T breast = test system: HS 578T breast
A549 NSCLC = test system: A549 NSCLC
KM12 colon = test system: KM12 colon
MCF7 breast = test system: MCF7 breast
MDA-N = test system: MDA-N
OVCAR-4 ovarian = test system: OVCAR-4 ovarian
EKVX NSCLC = test system: EKVX NSCLC
MDA-MB-231 breast = test system: MDA-MB-231 breast
K-562 leukemia = test system: K-562 leukemia
SK-OV-3 ovarian = test system: SK-OV-3 ovarian
T-47D breast = test system: T-47D breast
BT-549 breast = test system: BT-549 breast
LOX IMVI melanoma = test system: LOX IMVI melanoma
SK-MEL-28 melanoma = test system: SK-MEL-28 melanoma
HCT-116 colon = test system: HCT-116 colon
HL-60(TB) leukemia = test system: HL-60(TB) leukemia
SN12C renal = test system: SN12C renal
M14 melanoma = test system: M14 melanoma
UACC-257 melanoma = test system: UACC-257 melanoma
MDA-MB-435 = test system: MDA-MB-435
CAKI-1 renal = test system: CAKI-1 renal

Question: For O=C1/C(=C/c2[nH]ncc2-c2ccc(Cl)cc2)C(=O)N(c2ccccc2)C1c1ccccc1 (stereo not given), which TGI (HOP-92 NSCLC) is on record?
Answer: 76 µM

Question: What about the TGI (UO-31 renal) of the same compound?
Answer: 58.7 µM

Question: And the TGI (NCI-H23 lung)?
Answer: 28.8 µM

Question: And the TGI (SR leukemia)?
Answer: 30 µM

Question: And the TGI (HT29 colon)?
Answer: 27.5 µM

Question: What about the TGI (U251 CNS) of the same compound?
Answer: 50.2 µM

Question: And the TGI (SF-295 CNS)?
Answer: 50.7 µM

Question: What about the TGI (MOLT-4 leukemia) of the same compound?
Answer: 41 µM

Question: And the TGI (PC-3 prostate)?
Answer: > 100 µM

Question: What about the TGI (RXF 393 renal) of the same compound?
Answer: 49.4 µM

Question: What about the TGI (CCRF-CEM leukemia) of the same compound?
Answer: 53.7 µM

Question: What about the TGI (SF-539 CNS) of the same compound?
Answer: 58.8 µM

Question: And the TGI (IGROV1 ovarian)?
Answer: 45.1 µM

Question: And the TGI (TK-10 renal)?
Answer: > 100 µM

Question: And the TGI (SW-620 colon)?
Answer: 45.2 µM

Question: What about the TGI (SK-MEL-2 melanoma) of the same compound?
Answer: 35.2 µM

Question: What about the TGI (SF-268 CNS) of the same compound?
Answer: 40.9 µM

Question: What about the TGI (UACC-62 melanoma) of the same compound?
Answer: 27.8 µM

Question: And the TGI (NCI-H460 lung)?
Answer: > 100 µM

Question: What about the TGI (OVCAR-3 ovarian) of the same compound?
Answer: 26.9 µM

Question: And the TGI (A498 renal)?
Answer: 69.6 µM

Question: And the TGI (786-0 renal)?
Answer: 44.7 µM

Question: What about the TGI (MALME-3M melanoma) of the same compound?
Answer: 62.5 µM

Question: What about the TGI (NCI/ADR-RES ovarian) of the same compound?
Answer: > 100 µM

Question: What about the TGI (SNB-19 CNS) of the same compound?
Answer: > 100 µM

Question: What about the TGI (SK-MEL-5 melanoma) of the same compound?
Answer: 27.5 µM

Question: And the TGI (ACHN renal)?
Answer: 85.2 µM

Question: What about the TGI (DU-145 prostate) of the same compound?
Answer: 50.3 µM

Question: What about the TGI (HCT-15 colon) of the same compound?
Answer: 36.9 µM

Question: What about the TGI (COLO 205 colon) of the same compound?
Answer: 32.8 µM

Question: What about the TGI (HOP-62 NSCLC) of the same compound?
Answer: 63.2 µM

Question: And the TGI (NCI-H226 lung)?
Answer: 67.3 µM

Question: And the TGI (RPMI-8226 leukemia)?
Answer: 32.2 µM

Question: What about the TGI (NCI-H522 lung) of the same compound?
Answer: 27.2 µM

Question: And the TGI (HS 578T breast)?
Answer: 24.2 µM

Question: What about the TGI (A549 NSCLC) of the same compound?
Answer: > 100 µM

Question: And the TGI (KM12 colon)?
Answer: 79.5 µM

Question: What about the TGI (MCF7 breast) of the same compound?
Answer: > 100 µM

Question: What about the TGI (MDA-N) of the same compound?
Answer: 36.9 µM

Question: What about the TGI (OVCAR-4 ovarian) of the same compound?
Answer: 96.5 µM

Question: What about the TGI (EKVX NSCLC) of the same compound?
Answer: 51.3 µM

Question: What about the TGI (MDA-MB-231 breast) of the same compound?
Answer: 42.6 µM

Question: And the TGI (K-562 leukemia)?
Answer: 54.5 µM

Question: What about the TGI (SK-OV-3 ovarian) of the same compound?
Answer: 56.3 µM

Question: And the TGI (T-47D breast)?
Answer: 17.3 µM

Question: And the TGI (BT-549 breast)?
Answer: 43.7 µM

Question: And the TGI (LOX IMVI melanoma)?
Answer: 32.4 µM

Question: And the TGI (SK-MEL-28 melanoma)?
Answer: 50.4 µM

Question: And the TGI (HCT-116 colon)?
Answer: 25 µM

Question: What about the TGI (HL-60(TB) leukemia) of the same compound?
Answer: 37 µM

Question: And the TGI (SN12C renal)?
Answer: 85.7 µM

Question: What about the TGI (M14 melanoma) of the same compound?
Answer: 26 µM

Question: What about the TGI (UACC-257 melanoma) of the same compound?
Answer: 64.7 µM

Question: And the TGI (MDA-MB-435)?
Answer: 35.5 µM

Question: And the TGI (CAKI-1 renal)?
Answer: 31.1 µM

Reference: PubChem BioAssay (NCI)
